The target of experiment [1] is T1, KCNQ2 homomers (Kv7.2 homomers) (Homo sapiens, UniProt O43526).
T1 construct: expressed in transfected cells; host or cells: CHO cells
The experiment is described as follows: Whole cell voltage-clamp, wildtype KCNQ2 homomers expressed in CHO cells. In kind it is cell-based. The settings on record: 10.0 μM ezogabine; FIG. 11. The procedure:
Biological Assay Methods—Using lipid mediated transfection, plasmids including only wildtype (wt) KCNQ2, only wt KCNQ3, or both wt KCNQ2 and wt KCNQ3 subunits were expressed in Chinese hamster ovary (CHO) cells. Whole cell voltage-clamp protocols were used to measure gating and conductance density of wt channels before, during and after test compound application via focal pipette perfusion. The half-activating voltage (V1/2) was determined by Boltzmann fits of the conductance-voltage (G/V) curves.
Four highly recurrent KCNQ2-EE missense variants (FIG. 3), R210H (located in S4 of the voltage-sensor), T274M (located in the pore helix), A294V (located at the border of the pore loop and S6), and R581Q/L (located in the intracellular helix C), were introduced into KCNQ2 cDNA by QuikChange site-directed mutagenesis. R210H is in S4 of the voltage-sensor, T274M is in the pore helix, A294V is at the border of the pore loop and S6, and R581Q is in the intracellular helix C. Using lipid-mediated transfection, plasmids including the pathogenic variants were co-expressed with wildtype KCNQ2 or KCNQ2 and KCNQ3 subunits in Chinese hamster ovary (CHO) cells. The KCNQ2 S5 helix mutation W236L, which abolishes EZO modulation, was used to characterize Compound A binding. […]

A further experiment concerns the target T2, KCNQ2 W236L (Homo sapiens, UniProt O43526, W236L).
T2 construct: expressed in transfected cells; host or cells: CHO cells
The experiment is described as follows: Whole cell voltage-clamp, KCNQ2 W236L channels in CHO cells. In kind it is cell-based. From the text: Four highly recurrent KCNQ2-EE missense variants (FIG. 3), R210H (located in S4 of the voltage-sensor), T274M (located in the pore helix), A294V (located at the border of the pore loop and S6), and R581Q/L (located in the intracellular helix C), were introduced into KCNQ2 cDNA by QuikChange site-directed mutagenesis. R210H is in S4 of the voltage-sensor, T274M is in the pore helix, A294V is at the border of the pore loop and S6, and R581Q is in the intracellular helix C. Using lipid-mediated transfection, plasmids including the pathogenic variants were co-expressed with wildtype KCNQ2 or KCNQ2 and KCNQ3 subunits in Chinese hamster ovary (CHO) cells. The KCNQ2 S5 helix mutation W236L, which abolishes EZO modulation, was used to characterize Compound A binding. Whole cell voltage-clamp protocols were used to measure gating and conductance of wildtype channels and mutated subunit containing channels, before, during and after Compound A application via focal pipette perfusion.

Structures are written as SMILES.

For the molecule `CCOC(=O)Nc1ccc(NCc2ccc(F)cc2)cc1N` [EZO, ezogabine], the current density entry in experiment [1] is “increased”; at KCNQ2 W236L (W236L channels, 10.0 μM ezogabine, FIG. 14), “did not affect”. The “dependence of KCNQ2 homomer activation on W236” value at KCNQ2 W236L (wildtype KCNQ2 versus W236L) is “requires W236, like EZO”.

Values taken from patent US12370176B2, “Methods of use for KV7 channel activators” (Biohaven Therapeutics Ltd., priority 2019, dated 2025).
